From patent US7094602B2, “Method for cell culture” (Fuji Photo Film Co, Ltd., priority 2002, dated 2006)

Assays:
[1] = tested on: CHL (Chinese Hamster Lung Cell); type: cell-based; settings: cell layer transfer with weighting 0.8 g/cm^2, immersion 10 minutes, culture one day, immersion 20 minutes; for State of cells after detachment: Morphology of survived cells: optical microscope; for State of cells after detachment: Survival rate: trypan blue
Description: The samples obtained by the culture on the carriers for cell culture in Example 2 were taken out together with the carriers for cell culture, and placed on polystyrene cell culture dishes in such a manner that the cell layer surfaces contacted with the dishes, and foamed urethane filters having a thickness of 3 mm and stainless steel plates were placed thereon in this order. The weight of each stainless steel plate was adjusted so that the total weight including the weight of the urethane filter became 0.8 g/cm^2. Then, the samples were immersed in the detachment solution (iii), (iv) or (v) mentioned in Example 2 for 10 minutes, and after the solution was replaced with the medium, culture was performed at 37° C. for one day by using a CO2 incubator. The cultures were immersed in the same detachment solutions for 20 minutes, and then the carriers for cell culture were detached by pulling with a pair of tweezers. Then, the solutions were replaced with the medium, and culture was continued at 37° C. for one day by using a CO2 incubator. The cells were stained with trypan blue and then observed under an optical microscope. Favorable results were obtained with the detachment solutions of the present invention. In the sample where the weight was applied only by using the stainless steel plates without using the […] and the sample where the detachment solution (i) was used, the cells died during the transfer operation. Further, in the sample where the detachment solution (ii) was used, transfer was not successful.

[2] = tested on: HepG2 (human liver cancer derived cells) laminated on BRL (Buffalo Rat Liver 3A); experiment: Lamination of cell layers, cytochrome P-450 3A metabolism of BFC to HFC (Example 4); type: cell-based; settings: HepG2 layer transferred on BRL with the detachment solution; cultured 90 hours, BFC added, cultured two days
Procedure: In the same manner as that of Example 2, HepG2 (human liver cancer derived cells) was cultured on the carrier for cell culture of Example 1, and BRL (Buffalo Rat Liver 3A, ATCC No. CRL 1442) was cultured on a polystyrene cell culture dish. Cell layers were transferred on the cells cultured on the dishes by using the detachment solution (v) mentioned in Example 2 in the same manner as that of Example 3 to obtain laminated cells.

[3] = tested on: CHL (Chinese Hamster Lung Cell); experiment: Detachment of cultured cell layer from carrier for cell culture (Example 2); type: cell-based; settings: time required to detach CHL cell layer from calcium alginate/collagen carrier on immersion; MEM with EDTA, 3 g/l HMPA or 3 mM HEDP
Procedure: • Used cell: CHL (Chinese Hamster Lung Cell) • Used medium: Eagle's minimum medium containing 10% bovine fetal serum Carrier for Cell Culture: The carrier for cell culture prepared in Example 1, adhered to bottom surfaces of polystyrene cell culture dishes with double-sided tapes, and a polystyrene cell culture dishes alone as a comparative example were subjected to UV sterilization or electron beam sterilization. The operation, wherein the medium was added to the dishes to immerse the carrier for cell cultures for 5 minutes and then the medium was exchanged, was repeated three times, and then the dishes were left overnight to allow the medium to infiltrate into the carriers for cell culture. The calls cultured beforehand were collected by trypsin treatment, and the cell density was adjusted to 50,000 cells/ml. After the medium in the cells and dishes was discarded, the cell suspension was inoculated into the dishes at a cell number of 10,000 cells/cm^2, and then the medium was added. Thereafter, the cells were cultured at 37° C. for two days by using a CO2 incubator. The samples obtained by the culture were immersed in each of the following seven kinds of detachment solutions and non-detachment solutions, and then the cell layers were pulled with a pair of tweezers to examine state of detachment of the cell layers from the carriers for cell culture. A period of time required for the detachment of each cell layer was measured. Then, the cell sheets detached with an immersion time in a detachment solution of 30 minutes was placed on a polystyrene cell culture dish, added with the medium and cultured at 37° C. for one day by using a CO2 incubator. The cells were stained with trypan blue and observed under an optical microscope. The use of detachment agents of the present invention provided favorable detachment characteristics, that is, high survival rate of the cells and non-stimulative property (i.e., no cell deformation due to stimulation) was successfully confirmed. […]

[4] = tested on: CHL cells; experiment: Influence of chelating agent on cultured cells (Example 5); type: cell-based, Chinese Hamster; settings: cultured two days at 37° C. in the medium, 1.5 mM EDTA, GEDTA, DTPA, EDTPO, 3 g/l HMPA, 3 mM HEDP
Procedure: CHL cells cultured beforehand were collected by trypsinization, and the cell density was adjusted to 50000 cells/ml. This cell suspension was inoculated on a polystyrene cell culture dish at a cell number of 10000 cells/cm^2, and each of the following media was added. Then, the cells were cultured at 37° C. for two days by using a CO2 incubator. The results of evaluation of stimulative property on the cells based on morphology and proliferation property of the cultured cells are shown in Table 3. The results are represented by using the result obtained for the cells cultured with the medium a mention d in the table as a standard. […] Eagle's minimum medium (MEM) • Medium b: […] MEM added with 1.5 mM diethylenetriamine-N,N,N′,N,N-pentaacetic acid (DTPA) • Medium e: MEM added with 3 g/l of sodium hexametaphosphate (HMPA) • Medium f: […] MEM added with 1.5 mM ethylenediamine-N,N,N′,N′-tetrakis(methylenephosphoric acid) (EDTPO) As for the media b to f, pH was adjusted to that of the medium a with NaOH or HCl after the chemicals were added.

| SMILES | State of cells after detachment: Morphology of survived cells [1] | State of cells after detachment: Survival rate [1] | HFC produced through metabolism by cytochrome P-450 3A in laminated cells (fluorescence microscope) [2] | Detachment time [3] [min] | State of cells: Morphology [4] | State of cells: Proliferation rate ([4]; relative to medium a (MEM)) |
| --- | --- | --- | --- | --- | --- | --- |
| CC(O)(P(=O)(O)O)P(=O)(O)O [(v) MEM + HEDP, 1-hydroxyethane-1,1-diphosphoric acid] | Not deformed | 90% or more | Fluorescence derived from HFC was observed in the portions of HepG2 | 20 | – | – |
| O=P1([O-])OP(=O)([O-])OP(=O)([O-])OP(=O)([O-])OP(=O)([O-])OP(=O)([O-])O1.[Na+].[Na+].[Na+].[Na+].[Na+].[Na+] [(iv) MEM + HMPA, sodium hexametaphosphate] | Not deformed | 90% or more | – | 10 | – | – |
| O=C(O)CN(CCN(CC(=O)O)CC(=O)O)CC(=O)O [(iii) MEM + EDTA, EDTA] | – | – | – | 15 | X (30% or less of not rounded cells are indicated with X) | X (degradation to 70% or less is indicated with X) |
